{
  "source": "ChEMBL document CHEMBL1130695",
  "about": "“Biologically selective potassium channel openers having 1,1-diethylpropyl group” (1998)",
  "key": {"Cavia porcellus [1]": {"species_on_record": "Cavia porcellus", "experiment": "Compound was tested for relaxant activity in trachea for asthma in male guinea pigs", "format": "functional"}, "Canis familiaris": {"system": "Canis familiaris", "experiment": "Compound was tested for the antihypertensive activity in dogs by intravenous injection at a dose of 30 ug/kg", "format": "functional, Canis lupus familiaris"}, "Cavia porcellus [2]": {"species_on_record": "Cavia porcellus", "experiment": "Compound was tested for relaxant activity in taenia caecum", "format": "functional", "details": "read-out: ED50 (the source's name)"}, "Cavia porcellus [3]": {"species_on_record": "Cavia porcellus", "experiment": "Compound was tested for relaxant activity in urinary bladder for urinary incontinence in male guinea pigs", "format": "functional"}, "Cavia porcellus [4]": {"species_on_record": "Cavia porcellus", "experiment": "Compound was tested for relaxant activity in urinary bladder for urinary incontinence in male guinea pigs at 1 uM concentration", "format": "functional", "set-up": "scale not given: the % may be the effect or the level left"}},
  "data": [
    {"smiles": "CC1(C)Oc2ccc(C#N)cc2[C@@H](N2CCCC2=O)[C@@H]1O", "note": "[CROMAKALIM]", "values": [
      {"measurement": "ED50", "setting": "Cavia porcellus [1]", "result": 1200, "unit": "nM"},
      {"measurement": "AHA", "setting": "Canis familiaris", "result": -37.8, "unit": "delta mmHg"},
      {"measurement": "EC50", "setting": "Cavia porcellus [2]", "result": 470, "unit": "nM"},
      {"measurement": "ED50", "setting": "Cavia porcellus [3]", "result": 42, "unit": "nM"}
    ]},
    {"smiles": "CCC(C)(C)/N=C(\\NC#N)Nc1cc(Br)cc(C#N)c1", "values": [
      {"measurement": "ED50", "setting": "Cavia porcellus [1]", "result": 80, "unit": "nM"},
      {"measurement": "EC50", "setting": "Cavia porcellus [2]", "result": 32, "unit": "nM"},
      {"measurement": "ED50", "setting": "Cavia porcellus [3]", "result": 11, "unit": "nM"}
    ]},
    {"smiles": "CCC(C)(C)/N=C(\\NC#N)Nc1cc(F)cc(Cl)c1", "values": [
      {"measurement": "ED50", "setting": "Cavia porcellus [1]", "result": 260, "unit": "nM"},
      {"measurement": "ED50", "setting": "Cavia porcellus [3]", "result": 32, "unit": "nM"}
    ]},
    {"smiles": "CCC(CC)(CC)/N=C(\\NC#N)Nc1cc(Cl)cc(C#N)c1", "values": [
      {"measurement": "ED50", "setting": "Cavia porcellus [1]", "result": 5600, "unit": "nM"},
      {"measurement": "AHA", "setting": "Canis familiaris", "result": -18.9, "unit": "delta mmHg"},
      {"measurement": "EC50", "setting": "Cavia porcellus [2]", "result": 94, "unit": "nM"},
      {"measurement": "ED50", "setting": "Cavia porcellus [3]", "result": ">1000", "unit": "nM"},
      {"measurement": "Activity", "setting": "Cavia porcellus [4]", "result": 22, "unit": "%"}
    ]},
    {"smiles": "CC(N/C(=N\\C#N)Nc1ccncc1)C(C)(C)C", "note": "(stereo unspecified) [PINACIDIL ANHYDROUS]", "values": [
      {"measurement": "ED50", "setting": "Cavia porcellus [1]", "result": 2300, "unit": "nM"},
      {"measurement": "ED50", "setting": "Cavia porcellus [3]", "result": 310, "unit": "nM"}
    ]},
    {"smiles": "CCC(C)(CC)/N=C(\\NC#N)Nc1cc(Cl)cc(Cl)c1", "values": [
      {"measurement": "ED50", "setting": "Cavia porcellus [1]", "result": 440, "unit": "nM"},
      {"measurement": "ED50", "setting": "Cavia porcellus [3]", "result": 13, "unit": "nM"}
    ]},
    {"smiles": "CCC(C)(C)/N=C(\\NC#N)Nc1cc(Cl)cc(C#N)c1", "values": [
      {"measurement": "ED50", "setting": "Cavia porcellus [1]", "result": 280, "unit": "nM"},
      {"measurement": "AHA", "setting": "Canis familiaris", "result": -29.8, "unit": "delta mmHg"},
      {"measurement": "EC50", "setting": "Cavia porcellus [2]", "result": 75, "unit": "nM"},
      {"measurement": "ED50", "setting": "Cavia porcellus [3]", "result": 20, "unit": "nM"}
    ]},
    {"smiles": "CCC(CC)(CC)/N=C(\\NC#N)Nc1cc(Cl)cc(Cl)c1", "values": [
      {"measurement": "ED50", "setting": "Cavia porcellus [1]", "result": 30000, "unit": "nM"},
      {"measurement": "AHA", "setting": "Canis familiaris", "result": -15.9, "unit": "delta mmHg"},
      {"measurement": "ED50", "setting": "Cavia porcellus [3]", "result": ">1000", "unit": "nM"},
      {"measurement": "Activity", "setting": "Cavia porcellus [4]", "result": "<5", "unit": "%"}
    ]},
    {"smiles": "CCC(C)(C)/N=C(\\NC#N)Nc1cc(F)cc(Br)c1", "values": [
      {"measurement": "ED50", "setting": "Cavia porcellus [1]", "result": 180, "unit": "nM"},
      {"measurement": "ED50", "setting": "Cavia porcellus [3]", "result": 16, "unit": "nM"}
    ]},
    {"smiles": "CCC(C)(CC)/N=C(\\NC#N)Nc1cc(Cl)cc(C#N)c1", "values": [
      {"measurement": "ED50", "setting": "Cavia porcellus [1]", "result": 190, "unit": "nM"},
      {"measurement": "AHA", "setting": "Canis familiaris", "result": -25.2, "unit": "delta mmHg"},
      {"measurement": "EC50", "setting": "Cavia porcellus [2]", "result": 100, "unit": "nM"},
      {"measurement": "ED50", "setting": "Cavia porcellus [3]", "result": 16, "unit": "nM"}
    ]},
    {"smiles": "CC(C)C(C)(C)/N=C(\\NC#N)Nc1cc(Cl)cc(C#N)c1", "values": [
      {"measurement": "ED50", "setting": "Cavia porcellus [1]", "result": 690, "unit": "nM"},
      {"measurement": "AHA", "setting": "Canis familiaris", "result": -20.3, "unit": "delta mmHg"},
      {"measurement": "EC50", "setting": "Cavia porcellus [2]", "result": 170, "unit": "nM"},
      {"measurement": "ED50", "setting": "Cavia porcellus [3]", "result": 190, "unit": "nM"}
    ]}
  ]
}
